Patent US20090105270A1, “Kinase inhibition and anticancer therapy” (priority 2007, published 2009)

Experiments:
MRCKα(h) = MRCKα(h) (Homo sapiens, UniProt Q5VT25); assay: Upstate kinase activity inhibition assay MRCKα(h); conditions: 40 min, read-out: percentage of enzyme activity that remains
SGK2(h) = SGK2(h) (Homo sapiens, UniProt Q9HBY8); assay: Upstate kinase activity inhibition assay SGK2(h); conditions: 40 min, read-out: percentage of enzyme activity that remains
SAPK3(h) = target: T1, SAPK3(h) (Homo sapiens, UniProt P53778); assay: Upstate kinase activity inhibition assay SAPK3(h); format: biochemical; conditions: 40 min; read-out: percentage of enzyme activity that remains
T1 construct: purchased Upstate (KinaseProfiler service)

WNK2(h) = target: T2, WNK2(h) (Homo sapiens, UniProt Q9Y3S1); assay: Upstate kinase activity inhibition assay WNK2(h); format: biochemical; conditions: 40 min; read-out: percentage of enzyme activity that remains
T2 construct: purchased Upstate (KinaseProfiler service)

MST2(h) = MST2(h) (Homo sapiens, UniProt Q13188); assay: Upstate kinase activity inhibition assay MST2(h); conditions: 40 min, read-out: percentage of enzyme activity that remains
GSK3α(h) = GSK3α(h) (Homo sapiens, UniProt P49840); assay: Upstate kinase activity inhibition assay GSK3α(h); conditions: 40 min, read-out: percentage of enzyme activity that remains
BrSK1(h) = target: T3, BrSK1(h) (Homo sapiens, UniProt Q8TDC3); assay: Upstate kinase activity inhibition assay BrSK1(h); format: biochemical; conditions: 40 min; read-out: percentage of enzyme activity that remains
T3 construct: purchased Upstate (KinaseProfiler service)
T3 sequence (Q8TDC3 whole entry): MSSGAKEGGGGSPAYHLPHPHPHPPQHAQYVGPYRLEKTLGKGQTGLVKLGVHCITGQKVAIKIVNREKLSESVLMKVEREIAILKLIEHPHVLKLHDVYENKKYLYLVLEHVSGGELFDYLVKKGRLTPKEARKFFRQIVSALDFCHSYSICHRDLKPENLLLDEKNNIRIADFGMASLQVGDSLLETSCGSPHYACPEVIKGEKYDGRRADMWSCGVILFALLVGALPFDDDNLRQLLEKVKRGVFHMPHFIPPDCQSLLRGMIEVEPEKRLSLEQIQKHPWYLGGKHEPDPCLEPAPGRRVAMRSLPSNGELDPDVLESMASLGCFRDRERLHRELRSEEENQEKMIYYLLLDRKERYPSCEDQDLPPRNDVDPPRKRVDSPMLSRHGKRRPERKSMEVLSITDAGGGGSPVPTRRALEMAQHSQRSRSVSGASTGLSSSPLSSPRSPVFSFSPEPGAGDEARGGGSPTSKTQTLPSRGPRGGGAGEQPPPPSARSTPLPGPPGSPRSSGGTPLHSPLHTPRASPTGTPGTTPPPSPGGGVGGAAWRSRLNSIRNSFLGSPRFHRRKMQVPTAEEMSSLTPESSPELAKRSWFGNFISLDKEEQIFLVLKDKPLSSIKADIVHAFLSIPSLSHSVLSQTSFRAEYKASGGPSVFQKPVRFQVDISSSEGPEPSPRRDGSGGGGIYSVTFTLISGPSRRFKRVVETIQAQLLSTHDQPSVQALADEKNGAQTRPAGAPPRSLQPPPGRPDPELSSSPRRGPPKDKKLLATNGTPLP

DAPK1(h) = DAPK1(h) (Homo sapiens, UniProt P53355); assay: Upstate kinase activity inhibition assay DAPK1(h); conditions: 40 min, read-out: percentage of enzyme activity that remains
Rsk1(h) = target: T4, Rsk1(h) (Homo sapiens, UniProt Q15418); assay: Upstate kinase activity inhibition assay Rsk1(h); format: biochemical; conditions: 40 min; read-out: percentage of enzyme activity that remains
T4 construct: purchased Upstate (KinaseProfiler service)

MSK2(h) = MSK2(h) (Homo sapiens, UniProt O75676); assay: Upstate kinase activity inhibition assay MSK2(h); conditions: 40 min, read-out: percentage of enzyme activity that remains
JAK2(h) = target: T5, JAK2(h) (Homo sapiens, UniProt O60674); assay: Upstate kinase activity inhibition assay JAK2(h); format: biochemical
T5 construct: purchased Upstate (KinaseProfiler service)

DMPK(h) = DMPK(h) (Homo sapiens, UniProt Q09013); assay: Upstate kinase activity inhibition assay DMPK(h); conditions: 40 min, read-out: percentage of enzyme activity that remains
FGFR3(h) = FGFR3(h) (Homo sapiens, UniProt P22607); assay: Upstate kinase activity inhibition assay FGFR3(h); conditions: 40 min, read-out: percentage of enzyme activity that remains
PASK(h) = target: T6, PASK(h) (Homo sapiens, UniProt Q96RG2); assay: Upstate kinase activity inhibition assay PASK(h); format: biochemical; conditions: 40 min; read-out: percentage of enzyme activity that remains
T6 construct: purchased Upstate (KinaseProfiler service)

PKCι(h) = PKCι(h) (Homo sapiens, UniProt P41743); assay: Upstate kinase activity inhibition assay PKCι(h); format: biochemical; conditions: 40 min; read-out: percentage of enzyme activity that remains
Chain of PKCι(h) (P41743 whole entry): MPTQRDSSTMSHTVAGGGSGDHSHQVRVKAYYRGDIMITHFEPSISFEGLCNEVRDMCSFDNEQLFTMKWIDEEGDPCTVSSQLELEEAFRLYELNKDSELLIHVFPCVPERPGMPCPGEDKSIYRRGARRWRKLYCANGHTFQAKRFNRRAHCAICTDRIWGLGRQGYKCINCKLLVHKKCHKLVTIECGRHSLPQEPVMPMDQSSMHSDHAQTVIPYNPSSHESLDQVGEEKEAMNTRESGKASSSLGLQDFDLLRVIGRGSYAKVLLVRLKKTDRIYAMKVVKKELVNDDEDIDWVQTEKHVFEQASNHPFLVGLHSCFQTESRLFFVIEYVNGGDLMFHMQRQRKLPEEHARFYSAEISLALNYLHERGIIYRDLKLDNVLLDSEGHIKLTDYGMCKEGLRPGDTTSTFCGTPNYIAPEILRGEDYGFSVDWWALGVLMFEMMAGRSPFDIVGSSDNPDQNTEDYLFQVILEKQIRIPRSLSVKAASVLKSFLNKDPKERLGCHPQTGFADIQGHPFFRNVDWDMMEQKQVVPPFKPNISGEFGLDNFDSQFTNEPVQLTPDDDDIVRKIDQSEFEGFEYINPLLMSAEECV

eEF-2K(h) = target: T7, eEF-2K(h) (Homo sapiens, UniProt O00418); assay: Upstate kinase activity inhibition assay eEF-2K(h); format: biochemical; conditions: 40 min; read-out: percentage of enzyme activity that remains
T7 construct: purchased Upstate (KinaseProfiler service)

MAPK2(h) = target: T8, MAPK2(h) (Homo sapiens, UniProt P28482); assay: Upstate kinase activity inhibition assay MAPK2(h); format: biochemical; conditions: 40 min; read-out: percentage of enzyme activity that remains
T8 construct: purchased Upstate (KinaseProfiler service)

PDGFRα(h) = PDGFRα(h) (Homo sapiens, UniProt P16234); assay: Upstate kinase activity inhibition assay PDGFRα(h); conditions: 40 min, read-out: percentage of enzyme activity that remains
CaMKIV(h) = CaMKIV(h) (Homo sapiens, UniProt Q16566); assay: Upstate kinase activity inhibition assay CaMKIV(h); conditions: 40 min, read-out: percentage of enzyme activity that remains
ROCK-II(h) = ROCK-II(h) (Homo sapiens, UniProt O75116); assay: Upstate kinase activity inhibition assay ROCK-II(h); conditions: 40 min, read-out: percentage of enzyme activity that remains
CDK7/cyclinH/MAT1(h) = target: T9, CDK7/cyclinH/MAT1(h) (Homo sapiens, UniProt P50613); assay: Upstate kinase activity inhibition assay CDK7/cyclinH/MAT1(h); format: biochemical; conditions: 40 min, read-out: percentage of enzyme activity that remains
T9 construct: purchased Upstate (KinaseProfiler service)

CK2α2(h) = target: T10, CK2α2(h) (Homo sapiens, UniProt P19784); assay: Upstate kinase activity inhibition assay CK2α2(h); format: biochemical; conditions: 40 min; read-out: percentage of enzyme activity that remains
T10 construct: purchased Upstate (KinaseProfiler service)

cKit(D816V)(h) = target: T11, cKit(D816V)(h) (Homo sapiens, UniProt P10721, D816V); assay: Upstate kinase activity inhibition assay cKit(D816V)(h); format: biochemical; conditions: 40 min, read-out: percentage of enzyme activity that remains
T11 construct: purchased Upstate (KinaseProfiler service)
T11 sequence (P10721 26-976 D816V): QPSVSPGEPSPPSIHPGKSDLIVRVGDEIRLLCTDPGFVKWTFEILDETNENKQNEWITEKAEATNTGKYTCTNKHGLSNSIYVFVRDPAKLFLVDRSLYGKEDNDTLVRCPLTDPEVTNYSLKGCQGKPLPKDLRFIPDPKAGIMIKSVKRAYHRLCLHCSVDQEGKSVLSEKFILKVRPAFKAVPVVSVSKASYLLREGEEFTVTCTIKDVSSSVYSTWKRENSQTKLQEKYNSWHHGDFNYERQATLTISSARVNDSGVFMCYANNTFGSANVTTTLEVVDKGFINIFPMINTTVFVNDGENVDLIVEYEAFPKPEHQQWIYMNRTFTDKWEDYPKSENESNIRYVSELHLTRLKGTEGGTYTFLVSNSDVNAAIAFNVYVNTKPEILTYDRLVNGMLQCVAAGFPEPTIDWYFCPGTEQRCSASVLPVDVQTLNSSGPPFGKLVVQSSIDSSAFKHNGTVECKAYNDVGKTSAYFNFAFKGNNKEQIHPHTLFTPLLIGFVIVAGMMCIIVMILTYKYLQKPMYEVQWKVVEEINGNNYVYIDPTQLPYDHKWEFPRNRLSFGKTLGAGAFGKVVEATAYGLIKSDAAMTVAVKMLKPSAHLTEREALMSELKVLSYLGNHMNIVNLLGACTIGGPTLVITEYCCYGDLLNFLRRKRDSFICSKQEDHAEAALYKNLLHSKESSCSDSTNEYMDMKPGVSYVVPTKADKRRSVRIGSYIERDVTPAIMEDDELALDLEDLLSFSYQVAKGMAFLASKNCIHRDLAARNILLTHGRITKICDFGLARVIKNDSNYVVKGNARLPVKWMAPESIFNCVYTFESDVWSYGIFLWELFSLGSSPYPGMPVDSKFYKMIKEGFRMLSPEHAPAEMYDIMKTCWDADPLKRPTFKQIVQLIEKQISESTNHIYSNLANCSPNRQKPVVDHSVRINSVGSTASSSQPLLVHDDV

ALK(h) = target: T12, ALK(h) (Homo sapiens, UniProt Q9UM73); assay: Upstate kinase activity inhibition assay ALK(h); format: biochemical; conditions: 40 min; read-out: percentage of enzyme activity that remains
T12 construct: purchased Upstate (KinaseProfiler service)

MSSK1(h) = MSSK1(h) (Homo sapiens, UniProt Q9UPE1); assay: Upstate kinase activity inhibition assay MSSK1(h); conditions: 40 min, read-out: percentage of enzyme activity that remains
ZAP-70(h) = target: T13, ZAP-70(h) (Homo sapiens, UniProt P43403); assay: Upstate kinase activity inhibition assay ZAP-70(h); format: biochemical; conditions: 40 min; read-out: percentage of enzyme activity that remains
T13 construct: purchased Upstate (KinaseProfiler service)
T13 sequence (P43403 whole entry): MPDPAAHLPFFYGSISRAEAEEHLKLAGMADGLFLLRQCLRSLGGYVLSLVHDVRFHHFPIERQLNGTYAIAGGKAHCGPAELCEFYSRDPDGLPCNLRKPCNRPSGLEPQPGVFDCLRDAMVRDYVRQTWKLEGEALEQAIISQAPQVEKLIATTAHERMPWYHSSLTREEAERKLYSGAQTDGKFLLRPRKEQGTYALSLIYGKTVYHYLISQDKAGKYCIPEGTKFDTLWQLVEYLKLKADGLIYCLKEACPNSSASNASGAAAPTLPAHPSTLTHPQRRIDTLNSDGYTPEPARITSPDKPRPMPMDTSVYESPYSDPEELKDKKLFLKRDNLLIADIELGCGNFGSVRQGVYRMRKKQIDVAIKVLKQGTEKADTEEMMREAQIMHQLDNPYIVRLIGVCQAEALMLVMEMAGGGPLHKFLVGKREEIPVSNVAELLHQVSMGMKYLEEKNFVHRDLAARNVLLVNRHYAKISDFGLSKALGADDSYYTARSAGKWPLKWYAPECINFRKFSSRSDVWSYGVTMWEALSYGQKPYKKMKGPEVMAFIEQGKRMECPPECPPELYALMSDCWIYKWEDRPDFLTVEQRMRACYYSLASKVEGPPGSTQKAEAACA

TSSK2(h) = target: T14, TSSK2(h) (Homo sapiens, UniProt Q96PF2); assay: Upstate kinase activity inhibition assay TSSK2(h); format: biochemical; conditions: 40 min; read-out: percentage of enzyme activity that remains
T14 construct: purchased Upstate (KinaseProfiler service)

TrkB(h) = TrkB(h) (Homo sapiens, UniProt Q16620); assay: Upstate kinase activity inhibition assay TrkB(h); conditions: 40 min, read-out: percentage of enzyme activity that remains
PDK1(h) = target: T15, PDK1(h) (Homo sapiens, UniProt O15530); assay: Upstate kinase activity inhibition assay PDK1(h); format: biochemical; conditions: 40 min; read-out: percentage of enzyme activity that remains
T15 construct: purchased Upstate (KinaseProfiler service)

PKCα(h) = PKCα(h) (Homo sapiens, UniProt P17252); assay: Upstate kinase activity inhibition assay PKCα(h); conditions: 40 min, read-out: percentage of enzyme activity that remains

Chain of MRCKα(h) (Q5VT25 whole entry): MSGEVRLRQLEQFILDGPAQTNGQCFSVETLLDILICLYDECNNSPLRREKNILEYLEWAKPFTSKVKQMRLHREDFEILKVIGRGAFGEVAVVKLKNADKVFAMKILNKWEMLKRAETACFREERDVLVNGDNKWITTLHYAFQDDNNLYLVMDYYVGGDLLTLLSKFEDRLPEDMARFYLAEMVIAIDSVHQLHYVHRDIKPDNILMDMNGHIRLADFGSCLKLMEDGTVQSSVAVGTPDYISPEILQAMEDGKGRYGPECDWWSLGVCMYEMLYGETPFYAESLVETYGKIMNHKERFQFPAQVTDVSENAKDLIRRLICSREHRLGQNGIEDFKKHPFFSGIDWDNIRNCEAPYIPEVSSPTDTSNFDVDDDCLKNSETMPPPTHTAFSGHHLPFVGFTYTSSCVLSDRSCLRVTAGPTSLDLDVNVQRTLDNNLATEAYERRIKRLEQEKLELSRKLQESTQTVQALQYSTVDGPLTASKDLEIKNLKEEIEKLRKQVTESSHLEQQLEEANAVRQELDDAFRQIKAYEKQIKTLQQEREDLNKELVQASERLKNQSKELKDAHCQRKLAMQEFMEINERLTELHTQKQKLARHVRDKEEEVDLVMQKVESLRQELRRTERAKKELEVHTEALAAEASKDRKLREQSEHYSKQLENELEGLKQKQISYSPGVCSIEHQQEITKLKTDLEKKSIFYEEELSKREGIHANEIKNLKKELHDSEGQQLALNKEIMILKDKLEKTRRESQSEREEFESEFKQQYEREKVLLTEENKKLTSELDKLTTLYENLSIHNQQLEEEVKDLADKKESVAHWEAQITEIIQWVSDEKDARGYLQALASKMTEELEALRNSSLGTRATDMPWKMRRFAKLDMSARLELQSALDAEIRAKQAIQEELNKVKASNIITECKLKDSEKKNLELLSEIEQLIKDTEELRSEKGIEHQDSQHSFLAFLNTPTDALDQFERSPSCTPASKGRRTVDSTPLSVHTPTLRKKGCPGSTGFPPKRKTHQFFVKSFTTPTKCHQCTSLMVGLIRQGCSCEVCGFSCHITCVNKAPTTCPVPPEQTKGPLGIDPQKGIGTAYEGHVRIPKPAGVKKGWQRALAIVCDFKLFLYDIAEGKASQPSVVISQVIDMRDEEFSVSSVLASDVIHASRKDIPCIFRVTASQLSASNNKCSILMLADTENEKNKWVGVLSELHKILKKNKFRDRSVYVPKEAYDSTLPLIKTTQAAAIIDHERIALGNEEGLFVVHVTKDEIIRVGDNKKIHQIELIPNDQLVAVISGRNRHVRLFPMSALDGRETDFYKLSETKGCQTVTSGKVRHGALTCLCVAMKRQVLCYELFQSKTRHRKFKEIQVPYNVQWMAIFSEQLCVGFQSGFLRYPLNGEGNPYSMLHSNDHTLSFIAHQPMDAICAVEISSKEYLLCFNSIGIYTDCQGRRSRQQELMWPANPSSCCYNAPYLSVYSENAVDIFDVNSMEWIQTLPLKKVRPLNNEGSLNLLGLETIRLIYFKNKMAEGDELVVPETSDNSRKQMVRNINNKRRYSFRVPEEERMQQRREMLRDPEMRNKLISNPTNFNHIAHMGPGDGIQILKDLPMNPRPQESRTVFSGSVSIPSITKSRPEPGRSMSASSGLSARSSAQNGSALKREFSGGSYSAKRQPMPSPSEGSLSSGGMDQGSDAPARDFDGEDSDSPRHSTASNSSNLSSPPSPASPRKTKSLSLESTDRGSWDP
Chain of SGK2(h) (Q9HBY8 whole entry): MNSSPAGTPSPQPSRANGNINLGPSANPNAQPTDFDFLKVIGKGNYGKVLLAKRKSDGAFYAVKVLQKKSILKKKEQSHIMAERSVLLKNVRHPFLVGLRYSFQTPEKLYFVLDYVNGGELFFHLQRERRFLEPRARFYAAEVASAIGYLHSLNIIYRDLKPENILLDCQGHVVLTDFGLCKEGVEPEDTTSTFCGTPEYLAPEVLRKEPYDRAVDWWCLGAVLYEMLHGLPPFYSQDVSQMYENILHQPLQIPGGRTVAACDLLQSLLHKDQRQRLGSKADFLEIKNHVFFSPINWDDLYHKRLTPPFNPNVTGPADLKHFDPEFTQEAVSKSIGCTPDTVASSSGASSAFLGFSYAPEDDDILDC

Work on `Cc1cc(Nc2cc(N3CCN(C)CC3)nc(Sc3ccc(NC(=O)C4CC4)cc3)n2)n[nH]1` [Compound E, Cyclopropane carboxylic acid {4-[4-(4-methyl-piperazin-1-yl)-6-(5-methyl-2H-pyrazol-3-ylamino)-pyrimidin-2-ylsulphanyl]-phenyl}-amide] yielded a remaining activity at 0.2 µM (MRCKα(h)) of 96%, a remaining activity at 4 µM (MRCKα(h)) of 99% and a remaining activity at 0.2 µM (SGK2(h)) of 102%. It also gave a remaining activity at 4 µM (SGK2(h)) of 102%, a remaining activity at 0.2 µM (SAPK3(h)) of 132% and a remaining activity at 4 µM (SAPK3(h)) of 115%. The remaining activity at 0.2 µM (WNK2(h)) was 107%, the remaining activity at 4 µM (WNK2(h)) was 90% and the remaining activity at 0.2 µM (MST2(h)) was 92%. It also gave a remaining activity at 4 µM (MST2(h)) of 74%, a remaining activity at 0.2 µM (GSK3α(h)) of 106% and a remaining activity at 4 µM (GSK3α(h)) of 102%. For the same molecule, the remaining activity at 0.2 µM (BrSK1(h)) was 115%, the remaining activity at 4 µM (BrSK1(h)) was 97% and the remaining activity at 0.2 µM (DAPK1(h)) was 107%. It also gave a remaining activity at 4 µM (DAPK1(h)) of 100%, a remaining activity at 4 µM (Rsk1(h)) of 89% and a remaining activity at 0.2 µM (MSK2(h)) of 117%. The remaining activity at 4 µM (MSK2(h)) was 97%, the “percentage of enzyme activity that remains” value (JAK2(h); 0.2 μM Compound E) was 75% and the “percentage of enzyme activity that remains” value (JAK2(h); 4 μM Compound E) was 19%. It also gave a remaining activity at 0.2 µM (DMPK(h)) of 95%, a remaining activity at 4 µM (DMPK(h)) of 103% and a remaining activity at 0.2 µM (FGFR3(h)) of 87%. For the same molecule, the remaining activity at 4 µM (FGFR3(h)) was 29%, the remaining activity at 0.2 µM (PASK(h)) was 98% and the remaining activity at 0.2 µM (PKCι(h)) was 100%. It also gave a remaining activity at 4 µM (PKCι(h)) of 78%, a remaining activity at 0.2 µM (eEF-2K(h)) of 91% and a remaining activity at 4 µM (eEF-2K(h)) of 82%. The remaining activity at 0.2 µM (MAPK2(h)) was 92%, the remaining activity at 0.2 µM (PDGFRα(h)) was 87% and the remaining activity at 0.2 µM (CaMKIV(h)) was 100%. For the same molecule, the remaining activity at 4 µM (CaMKIV(h)) was 99%, the remaining activity at 0.2 µM (ROCK-II(h)) was 93% and the remaining activity at 4 µM (ROCK-II(h)) was 106%. The remaining activity at 0.2 µM (CDK7/cyclinH/MAT1(h)) was 113%, the remaining activity at 4 µM (CDK7/cyclinH/MAT1(h)) was 94% and the remaining activity at 0.2 µM (CK2α2(h)) was 100%. It also gave a remaining activity at 0.2 µM (cKit(D816V)(h)) of 89%, a remaining activity at 4 µM (cKit(D816V)(h)) of 79% and a remaining activity at 0.2 µM (ALK(h)) of 70%. It also gave a remaining activity at 4 µM (ALK(h)) of 58%, a remaining activity at 0.2 µM (MSSK1(h)) of 110% and a remaining activity at 4 µM (MSSK1(h)) of 108%. The remaining activity at 0.2 µM (ZAP-70(h)) was 75%, the remaining activity at 4 µM (ZAP-70(h)) was 64% and the remaining activity at 0.2 µM (TSSK2(h)) was 0%. The remaining activity at 4 µM (TSSK2(h)) was 0%, the remaining activity at 0.2 µM (TrkB(h)) was 71% and the remaining activity at 4 µM (TrkB(h)) was 1%. It also gave a remaining activity at 0.2 µM (PDK1(h)) of 97%, a remaining activity at 4 µM (PDK1(h)) of 86% and a remaining activity at 0.2 µM (PKCα(h)) of 115%. It also gave a remaining activity at 4 µM (PKCα(h)) of 105%.
